Several values for one entry are separate records, joined by “and”; a condition that tells them apart may be missing. Identical values can stand only once. Entries after “also recorded” stand apart in the source; their conditions may differ. Like-named read-outs stand apart in the source and are kept apart here.
Tests used:
[1] = molecular target: T1, SARS-CoV-2 nsp13 helicase (Severe acute respiratory syndrome coronavirus 2, UniProt P0DTD1); assay: biochemical; format: biochemical
[2] = molecular target: T2, SARS-CoV-2 RdRp holoenzyme (Severe acute respiratory syndrome coronavirus 2, UniProt P0DTD1); assay: FRET-based RdRp strand displacement assay; format: biochemical
T2 construct: (Sf nsp12-3F/7L8 preincubated with Sf 7H8 at a 1:3 ratio); 3F (3xFlag) (C); made in house; host or cells: 'Sf', read as Spodoptera frugiperda insect cells (my inference from the prefix); details are in Bertolin et al

[3] = molecular target: T1, SARS-CoV-2 nsp13 helicase; format: biochemical
SARS-CoV-2 = assay: microbe, parasite or virus in culture; format: cell-based; settings: for EC50: read-out: EC50 viral inhibition
[4] = RNA (nsp13 substrate), 0.3 mM ATP, 0.02% Tween-20 in RdRp assay buffer, read-out: IC50 nsp13
[5] = read-out: IC50 + 0.02% Tween-20
[6] = RNA (RdRp substrate), 0.3 mM each NTP, 0.02% Tween-20 in RdRp assay buffer, read-out: IC50 RdRp
[7] = read-out: IC50 + 0.01% Triton X-100
[8] = Severe acute respiratory syndrome coronavirus 2, Vero C1008, 22 h
[9] = IC50 0.02% Tween-20 + (presence)
[10] = IC50 0.02% Tween-20 − (absence)

Q: How did the IC50 [1, 4] turn out when `Cc1cc(-c2ccc(N=Nc3c(S(=O)(=O)[O-])cc4cc(S(=O)(=O)[O-])cc(N)c4c3O)c(C)c2)ccc1N=Nc1c(S(=O)(=O)[O-])cc2cc(S(=O)(=O)[O-])cc(N)c2c1O.[Na+].[Na+].[Na+].[Na+]` [Diphenyl Blue] was run?
A: 4 µM

Q: What about the IC50 [1, 5] of the same molecule?
A: 4.7 µM

Q: What about the IC50 ([1]; read-out: IC50 No detergent) of the same molecule?
A: 5.6 µM

Q: What about the IC50 [2, 6] of the same molecule?
A: 5 µM

Q: And the “inhibition of duplex unwinding in gel-based assay” value (“inhibition of duplex unwinding” for short) [3]?
A: clearly reduced the generation of single-stranded Cy3 strand

Q: `Cc1cc(-c2ccc(/N=N/c3ccc4c(S(=O)(=O)O)cc(S(=O)(=O)O)c(N)c4c3O)c(C)c2)ccc1/N=N/c1ccc2c(S(=O)(=O)O)cc(S(=O)(=O)O)c(N)c2c1O` [Evans Blue] was tested. Which IC50 ([1]; IC50 No detergent) did it give?
A: 1.2 µM

Q: And the IC50 [1, 4]?
A: 1.5 µM

Q: What about the “inhibition of duplex unwinding” value [3] of the same molecule?
A: clearly reduced the generation of single-stranded Cy3 strand

Q: `NC(=S)N/N=C/c1coc2ccccc2c1=O.[Cl][Cu][Cl]` [FPA 124] was tested. Which “nsp13 inhibition and detergent sensitivity” value [1] did it give?
A: no detergent sensitivity; also recorded: largely insensitive to detergent addition

Q: And the IC50 [1, 7]?
A: 8.9 µM

Q: What about the IC50 [1, 5] of the same molecule?
A: 8.4 µM

Q: What about the IC50 ([1]; read-out: IC50 -Triton X-100) of the same molecule?
A: 9.1 µM

Q: And the IC50 ([1]; read-out: IC50 No detergent)?
A: 8.5 µM

Q: What about the IC50 ([1]; read-out: IC50 against nsp13 in vitro) of the same molecule?
A: ~9 µM

Q: What about the “inhibition of duplex unwinding” value [3] of the same molecule?
A: clearly reduced the generation of single-stranded Cy3 strand

Q: What about the EC50 (SARS-CoV-2) of the same molecule?
A: 14 µM and ~14 µM

Q: What does the source list for `O=c1c(O)c(-c2cc(O)c(O)c(O)c2)oc2cc(O)cc(O)c12` [Myricetin]?
A: nsp13 inhibition and detergent sensitivity [1]: clear inhibition only in the absence of detergent; inhibition of duplex unwinding in gel-based assay [3]: inhibited nsp13 with less efficiency; EC50 (SARS-CoV-2; [8]): 32 µM; EC50 (SARS-CoV-2): 31.6 µM

Q: With `O=C(Nc1cccc(C(=O)Nc2ccc(S(=O)(=O)[O-])c3cc(S(=O)(=O)[O-])cc(S(=O)(=O)[O-])c23)c1)Nc1cccc(C(=O)Nc2ccc(S(=O)(=O)[O-])c3cc(S(=O)(=O)[O-])cc(S(=O)(=O)[O-])c23)c1.[Na+].[Na+].[Na+].[Na+].[Na+].[Na+]` [NF 023] as the molecule, how does the IC50 [1, 4] read?
A: 0.7 µM

Q: What about the “nsp13 inhibition and detergent sensitivity” value ([1]; presence or absence of non-ionic detergent) of the same molecule?
A: largely insensitive to detergent addition

Q: What about the IC50 ([1]; read-out: IC50 0.02% Tween-20 + (presence)) of the same molecule?
A: 0.64 µM

Q: What about the IC50 ([1]; read-out: IC50 0.02% Tween-20 − (absence)) of the same molecule?
A: 0.67 µM

Q: What about the IC50 [1, 7] of the same molecule?
A: 0.51 µM

Q: And the IC50 [1, 5]?
A: 0.92 µM

Q: What about the IC50 ([1]; read-out: IC50 -Triton X-100) of the same molecule?
A: 0.33 µM

Q: And the “inhibition of duplex unwinding” value [3]?
A: clearly reduced the generation of single-stranded Cy3 strand

Q: How did the IC50 [1, 4] turn out when `Cc1nc(N=Nc2cc(S(=O)(=O)[O-])c3cc([N+](=O)[O-])cc(S(=O)(=O)[O-])c3c2)c(COP(=O)([O-])[O-])c(C=O)c1O.[Na+].[Na+].[Na+].[Na+]` [PPNDS] was run?
A: 2.2 µM

Q: What about the IC50 [1, 5] of the same molecule?
A: 1.6 µM

Q: And the IC50 ([1]; read-out: IC50 No detergent)?
A: 2 µM

Q: What about the IC50 [2, 6] of the same molecule?
A: 0.7 µM

Q: And the “inhibition of duplex unwinding” value [3]?
A: clearly reduced the generation of single-stranded Cy3 strand

Q: For `CCC(CC)COC(=O)[C@H](C)N[P@](=O)(OC[C@H]1O[C@@](C#N)(c2ccc3c(N)ncnn23)[C@H](O)[C@@H]1O)Oc1ccccc1` [Remdesivir], which inhibition at 1 µM (SARS-CoV-2; Severe acute respiratory syndrome coronavirus 2, Vero C1008, 1 µM remdesivir alone, Vero E6 cells, read-out: inhibition of viral infection) is on record?
A: < 20%

Q: What does the source list for `C=CCn1c(CSc2ccccc2[N+](=O)[O-])n[nH]c1=S` [SSYA10-001]?
A: nsp13 inhibition and detergent sensitivity [1]: moderate sensitivity to detergent; IC50 [1, 7]: 21 µM; IC50 [1, 5]: 28 µM; IC50 ([1]; read-out: IC50 -Triton X-100): 14 µM; IC50 ([1]; read-out: IC50 No detergent): 7.5 µM; inhibition of duplex unwinding in gel-based assay [3]: inhibited nsp13 with less efficiency; EC50 (SARS-CoV-2): 81 µM and 80.5 µM

Q: How did the “nsp13 inhibition and detergent sensitivity” value [1] turn out when `Cc1ccc(C(=O)Nc2ccc(S(=O)(=O)O)c3cc(S(=O)(=O)O)cc(S(=O)(=O)O)c23)cc1NC(=O)c1cccc(NC(=O)Nc2cccc(C(=O)Nc3cc(C(=O)Nc4ccc(S(=O)(=O)O)c5cc(S(=O)(=O)O)cc(S(=O)(=O)O)c45)ccc3C)c2)c1` [Suramin] was run?
A: largely insensitive to detergent addition

Q: And the IC50 [1, 9]?
A: 1.6 µM

Q: And the IC50 [1, 10]?
A: 0.74 µM

Q: What about the IC50 ([1]; IC50 + 0.01% Triton X-100) of the same molecule?
A: 1.6 µM

Q: What about the IC50 ([1]; IC50 -Triton X-100) of the same molecule?
A: 1.3 µM

Q: What about the IC50 ([1]; IC50 No detergent) of the same molecule?
A: 0.94 µM

Q: What about the IC50 ([1]; IC50 against nsp13 in vitro) of the same molecule?
A: ~1 µM

Q: And the IC50 ([1]; IC50 nsp13)?
A: 1.5 µM

Q: And the IC50 [2, 6]?
A: 0.5 µM

Q: And the “inhibition of duplex unwinding” value [3]?
A: clearly reduced the generation of single-stranded Cy3 strand

Q: And the EC50 (SARS-CoV-2; [8])?
A: 9.9 µM

Q: What about the EC50 (SARS-CoV-2) of the same molecule?
A: ~10 µM

Q: With `CC1(C)CCC(CN2CCN(c3ccc(C(=O)NS(=O)(=O)c4ccc(NCC5CCOCC5)c([N+](=O)[O-])c4)c(Oc4cnc5[nH]ccc5c4)c3)CC2)=C(c2ccc(Cl)cc2)C1` [Venetoclax/ABT-199, Venetoclax] as the molecule, how does the IC50 ([1]; IC50 + 0.02% Tween-20) read?
A: > 250 µM

Q: What about the IC50 ([1]; IC50 No detergent) of the same molecule?
A: 25 µM

Q: And the “IC50 nsp13” value ([1]; RNA (nsp13 substrate), 0.3 mM ATP, 0.02% Tween-20 in RdRp assay buffer)?
A: No inhibition

Q: What about the “IC50 RdRp” value ([2]; RNA (RdRp substrate), 0.3 mM each NTP, 0.02% Tween-20 in RdRp assay buffer) of the same molecule?
A: No inhibition

Q: How did the IC50 [1, 9] turn out when `COc1cc(C(=O)NS(=O)(=O)c2ccccc2C)ccc1Cc1cn(C)c2ccc(NC(=O)OC3CCCC3)cc12` [Zafirlukast] was run?
A: 50 µM

Q: And the IC50 [1, 10]?
A: 1.5 µM

Q: And the IC50 ([1]; IC50 + 0.01% Triton X-100)?
A: 22 µM

Q: What about the IC50 ([1]; IC50 + 0.02% Tween-20) of the same molecule?
A: 53 µM and 55 µM

Q: And the IC50 ([1]; IC50 -Triton X-100)?
A: 7.4 µM

Q: What about the IC50 ([1]; IC50 No detergent) of the same molecule?
A: 3.6 µM and 6.6 µM

Q: What about the IC50 [1, 4] of the same molecule?
A: 48 µM

Q: What about the IC50 [2] of the same molecule?
A: 46 µM

Source: paper PMC8286831, “Identifying SARS-CoV-2 antiviral compounds by screening for small molecule inhibitors of nsp13 helicase” (Biochemical Journal, 2021)
